Values joined by “and” are separate entries in the source; they are usually repeats but may differ in a detail not shown here. Identical values can stand only once.
Assay: Single dose, randomized, open-label, 4-period crossover pharmacokinetic study; plasma tramadol and O-desmethyltramadol (M1) by HPLC-MS/MS; AQ=Cmax/Tmax
Conditions: healthy subjects; for AQ for tramadol, comparison between treatments (statistical significance): 4-way cross-over study; for O-desmethyltramadol AQ / O-desmethyltramadol Cmax / O-desmethyltramadol Tmax / Tramadol AQ / Tramadol Cmax: 2 × 100 mg co-crystal E-58425 tablets (Treatment 1), oral
Experimental: The study was a single center, randomized, single dose, open-label, 4-period, 4-sequence, crossover design in healthy male and female subjects.
The products were administered to 36 subjects. The wash-out between the periods for each subject was of 7 calendar days.
Separate blood samples were obtained for analysis of tramadol/M1 metabolite and for analysis of celecoxib (data not shown).
As soon as possible following blood collection, samples were centrifuged at a temperature of 4° C. nominal and at approximately 1500 g for 10 minutes. The plasma obtained was separated into duplicate polypropylene culture tubes. […] The samples were frozen in an upright position and retained in the clinic's freezers at a temperature of −20° C. nominal until sent on dry ice to the bioanalytical facility for assay.
The experimental human plasma samples were assayed for tramadol and M1 metabolite (O-desmethyltramadol) and also for celecoxib (data not shown) using two different validated bioanalytical methods by HPLC with MS/MS detection.
Sample pre-treatment involved the liquid-liquid extraction of tramadol and O-desmethyltramadol from 0.100 mL of human plasma; tramadol-D6 and O-desmethyltramadol-D6 were used as the internal standards (IS1 and IS2 respectively). The compounds were identified and quantified using Hilic HPLC with MS/MS detection over a theoretical concentration range of 2.00 ng/mL to 800.00 ng/mL for tramadol and 0.500 ng/mL to 200.00 ng/mL for O-desmethyltramadol. The concentrations were calculated using peak area ratios and the linearity of the calibration curve was determined using a weighted (1/x^2) linear (y=mx+b) least squares regression analysis for tramadol and for O-desmethyltramadol.
Pharmacokinetic parameters were estimated from the individual plasma concentration—time profile for each subject. The main absorption and disposition parameters were obtained using a non-compartmental approach with a log-linear terminal phase assumption. Maximum observed plasma concentration (Cmax) and the time of maximum observed plasma concentration (Tmax) were obtained directly from the experimental data. The trapezoidal rule was used to estimate the area under the curve (AUC; data not shown) and the terminal phase was estimated by maximizing the coefficient of determination estimated from the log-linear regression model (T1/2; data not shown). The abuse quotient was obtained using the following expression AQ=Cmax/Tmax.

[1] = Table 3 summary, oral co-crystal E-58425 tablets

COc1cccc([C@]2(O)CCCC[C@@H]2CN(C)C)c1.Cc1ccc(-c2cc(C(F)(F)F)nn2-c2ccc(S(N)(=O)=O)cc2)cc1.Cl (racemic) [co-crystal E-58425, co-crystal of (rac)-tramadol.HCl and celecoxib]
AQ for tramadol, comparison between treatments (statistical significance): better (lower) AQ ratio | AQ for tramadol, comparison between treatments (statistical significance) (listed as Co-crystal E-58425): lower than those obtained for Ultram® and for Ultram® and Celebrex® taken concomitantly | O-desmethyltramadol AQ (Mean, n=33): 13.5 ng/(mL · h) | O-desmethyltramadol Cmax (Mean, n=33): 54.5 ng/mL | O-desmethyltramadol Tmax (Mean, n=33): 4.4 h | Tramadol AQ (Mean, n=33): 70.5 ng/(mL · h) | Tramadol Cmax (Mean, n=33): 214.3 ng/mL | O-desmethyltramadol AQ (Median, n=33): 13.3 ng/(mL · h) | O-desmethyltramadol Cmax (Median, n=33): 55.4 ng/mL | Tramadol AQ (Median, n=33): 70.7 ng/(mL · h) | Tramadol Cmax (Median, n=33): 207.5 ng/mL | AQ M1 Mean [1]: 13.5 | AQ Tramadol Mean [1]: 70.5 | O-desmethyltramadol Tmax (individual subject values, fasting, plasma): 3.00 h and 4.00 h
